Results taken from patent publication US20240270673A1, “PROCESS AND SYSTEM FOR THE RECOVERY OF GLYOXYLIC ACID” (Avantium Knowledge Centre B.V., priority 2021, published 2024).

Assay: Low-temperature crystallization of oxalic acid from aqueous glyoxylic acid/oxalic acid solutions (Crystal16 parallel crystallizer), liquid phase concentration after equilibration
Format: physicochemical
Conditions: liquid phase after equilibration over night
From the text: Low-temperature crystallization experiments have been carried out on a series of solutions containing glyoxylic acid and oxalic acid at different concentrations.
Solutions containing glyoxylic acid and oxalic acid at different concentrations have been prepared and were cooled under controlled conditions in a Crystal16™ parallel crystallizer (Technobis Crystallization Systems). After reaching the set temperature the mixture as left to equilibrate over night after which a sample of the liquid phase was taken to determine the concentration of oxalic acid and glyoxylic acid after crystallization.

[1] = Entry 1, T setpoint 10 degree Celsius, at RT glyoxylic 150.4 gr/L, oxalic 58.8 gr/L
[2] = Entry 2, T setpoint 5 degree Celsius, at RT glyoxylic 150.4 gr/L, oxalic 58.8 gr/L
[3] = Entry 3, T setpoint 0 degree Celsius, at RT glyoxylic 150.4 gr/L, oxalic 58.8 gr/L
[4] = Entry 4, T setpoint −5 degree Celsius, at RT glyoxylic 150.4 gr/L, oxalic 58.8 gr/L
[5] = Entry 5, T setpoint 10 degree Celsius, at RT glyoxylic 310.6 gr/L, oxalic 44.1 gr/L
[6] = Entry 6, T setpoint 5 degree Celsius, at RT glyoxylic 310.6 gr/L, oxalic 44.1 gr/L
[7] = Entry 7, T setpoint 0 degree Celsius, at RT glyoxylic 310.6 gr/L, oxalic 44.1 gr/L
[8] = Entry 8, T setpoint −5 degree Celsius, at RT glyoxylic 566.8 gr/L, oxalic 29.5 gr/L

Structure (SMILES)	Glyoxylic concentration at setpoint [1]	Glyoxylic concentration at setpoint [2]	Glyoxylic concentration at setpoint [3]	Glyoxylic concentration at setpoint [4]	Glyoxylic concentration at setpoint [5]	Glyoxylic concentration at setpoint [6]	Glyoxylic concentration at setpoint [7]	Glyoxylic concentration at setpoint [8]	Oxalic concentration at setpoint [1]	Oxalic concentration at setpoint [2]	Oxalic concentration at setpoint [3]	Oxalic concentration at setpoint [4]	Oxalic concentration at setpoint [5]	Oxalic concentration at setpoint [6]	Oxalic concentration at setpoint [7]	Oxalic concentration at setpoint [8]
O=CC(=O)O [glyoxylic acid, Glyoxylic acid]	156.1 gr/L	160.62 gr/L	157.73 gr/L	161.70 gr/L	326.42 gr/L	323.65 gr/L	332.54 gr/L	573.48 gr/L	–	–	–	–	–	–	–	–
O=C(O)C(=O)O [oxalic acid]	–	–	–	–	–	–	–	–	36.3 gr/L	32.70 gr/L	27.04 gr/L	22.37 gr/L	29.07 gr/L	21.83 gr/L	19.25 gr/L	9.57 gr/L
